{
  "source": "patent US20230233500A1",
  "about": "“Gasdermin D (GSDMD) Succination for the Treatment of Inflammatory Disease” (University of Massachusetts, priority 2020, published 2023)",
  "key": {"human THP1": {"system": "human THP1", "experiment": "LPS-Nig induced cell death and LDH release in THP1 cells", "format": "cell-based", "settings": "PMA-differentiated THP1, fumarate 25 μM; for LPS-Nig induced cell death: SYTOX Orange", "method": "FIGS. 6A-G. Fumarate inhibits pyroptosis in Human cells. (A-B) Representative images (A) and kinetic data (B) of SYTOX Orange and Hoechst-stained PMA-differentiated THP1 cells treated with LPS for 2 hours, DMSO (vehicle) or fumarate (25 μM) for 1 hour and nigericin (10 μM) for 6 hours. (C) LDH release from (A). (D-E) Kinetic cell death data of SYTOX Orange and Hoechst stained (D) or LDH assay of conditioned medium from primary CD14+ positive monocytes treated with LPS for 2 hours DMSO (vehicle) or fumarate (25 μM) for 1 hour and nigericin (10 μM) for 6 hours. (F) LC/MS quantification of fumarate in WT BMDMs treated with LPS for 2 hours, FHIN1 for 1 hour and nigericin for 1 hour. (G) Representative images of WT primary BMDMs stained with SYTOX Orange and Hoechst following treatment with LPS for 2 hours, DMSO (vehicle) or fumarate (25 μM) or FHIN1 (25 μM) for 1 hour and nigericin for a timecourse of 6 hours. A, B, D, G are representative of 3 independent experiments. C, E, F are pooled data from 3 independent experiments. ***, P<0.001, ****, P<0.00001 (Students t-test). Error bars show mean±SD (B, D) or SEM (C, E). Human kidney cell line HEK293T was cultured in Dulbecco's modified Eagle's medium supplemented with 10% (v/v) fetal bovine serum, 100 U/ml penicillin and 100 µg/ml streptomycin. Human peripheral blood monocyte cell line, THP1 cells were cultured in RPMI-1640 medium supplemented with 10% (v/v) fetal bovine serum, 100 U/ml penicillin and 100 µg/ml streptomycin. For isolation of BMDMs, tibias and femurs were removed from wild type and GsdmD^−/− mice and bone marrow was flushed with complete DMEM-medium. Cells were plated in medium containing 20% (v/v) conditioned medium of L929 mouse fibroblasts cultured for 7 days at 37° C. in a humidified atmosphere of 5% C02. Medium was replaced every 3 days. Cells were plated, treated and incubated in phenol red free medium. Following treatment medium was collected and assessed for LDH release using the CytoTox96 non-radioactive cytotoxicity assay (Promega) as per manufacturer's instructions. […]"}, "EAE in WT mice": {"system": "EAE in WT mice", "experiment": "Experimental autoimmune encephalomyelitis (EAE)", "format": "in vivo, mouse"}, "[1]": {"settings": "flow cytometry, spinal cord and brain"}},
  "note": "Where a name gives a salt, the structure may show the parent alone.",
  "data": [
    {"compound": "COC(=O)/C=C/C(=O)OC", "note": "[Fumarate, Dimethyl fumarate]", "values": [
      {"measurement": "LPS-Nig induced LDH release", "setting": "human THP1", "value": "blocked"},
      {"measurement": "LPS-Nig induced cell death", "setting": "human THP1", "value": "blocked"},
      {"measurement": "LPS-Nig induced cell death", "setting": "human THP1; listed as fumarate", "value": "inhibited cell death"},
      {"measurement": "onset of EAE (clinical scores)", "setting": "EAE in WT mice; WT mice, fumarate daily after EAE induction", "value": "blocked"},
      {"measurement": "Th1 (IFN-γ+) cells in the CNS", "setting": "EAE in WT mice; flow cytometry", "value": "reduced"},
      {"measurement": "Th17 (IL-17A+) cells in the CNS", "setting": "EAE in WT mice; flow cytometry", "value": "reduced"},
      {"measurement": "infiltration of CD4+ T-cells to the CNS", "setting": "EAE in WT mice; [1]", "value": "reduced infiltration"},
      {"measurement": "infiltration of CD8+ T-cells to the CNS", "setting": "EAE in WT mice; [1]", "value": "reduced infiltration"},
      {"measurement": "infiltration of myeloid cells to the CNS", "setting": "EAE in WT mice; [1]", "value": "reduced infiltration"},
      {"measurement": "neuropathology", "setting": "EAE in WT mice; spinal cord sections", "value": "reduced"},
      {"measurement": "demyelination", "setting": "EAE in WT mice; spinal cord sections, LFB", "value": "reduced"},
      {"measurement": "GSDMD-N in CNS tissue", "setting": "EAE in WT mice; spinal cord, staining and immunoblot", "value": "reduced"}
    ]}
  ]
}
